In patent US20260248879A1, “METHODS OF USING A GCG/GLP1 CO-AGONIST FOR THERAPY” (ELI LILLY AND COMPANY, priority 2022, published 2026):
Values joined by “and” are separate entries in the source; they are usually repeats but may differ in a detail not shown here. Equal entries are not always repeated. Where two headings read alike, the source gives them in different places. Marks after values point to notes of the source that are not given here.

How the values were obtained:
patients with T2DM [1] = test: Example 1 study: Mixed Meal Tolerance Test (MMTT); assay type: in vivo, human
Description: In respect of Cohort 1, the MMTT is performed at baseline and on Day 80. In respect of Cohort 2, the MMTT is performed at baseline and on Day 108.
Patients are provided breakfast meals for the MMTTs. Upon awakening, patients consume water to stay hydrated in order to mitigate problems with blood sample collections. Patients are provided individualized breakfast meals for the MMTTs. The total caloric content is approximately 30% of the daily estimated caloric need for weight. The macronutrient composition of the meals is targeted to provide approximately 50% of the calories from carbohydrate, 30% of the calories from fat, and 20% of the calories from protein. Patients are fasted (except for water) for at least 8 hours before each test meal and consume each meal within approximately 20 minutes. Test meals for each patient are kept consistent with respect to calorie and nutrient content across all MMTT assessments in the study.
For both parts of the study, the patient is not allowed to consume water (apart from fluid provided with the meal) for approximately 3 hours post MMTT until BOD POD® measurement.
While resident in the CRU, patients may not consume any food or caloric drinks other than that provided by the CRU. When not resident in the CRU, patients may resume their regular diet. The actual time of meal start and completion, total calories, and amount of meal (%) consumed in the MMTT are recorded.

individuals with obesity = test: Example 2 multiple ascending dose study in obesity: body weight, waist circumference; assay type: in vivo, human
Description: This study is designed to evaluate the safety, tolerability, PD and PK of dose to higher doses of Compound 1 in individuals with obesity. The Multiple Ascending Dose (MAD) study is a randomized, investigator- and participant-blind, placebo-controlled, multiple-ascending dose, single- or multi-site study conducted in individuals with obesity (i.e., females or males aged 18-70 years, inclusive, a BMI in the range of 27 kg/m^2 to 50 kg/m^2). Participants should have stable body weight for at least 3 months prior to the initiation of the study. Dose of Compound 1 is assessed with weekly dosing over 20 weeks in 2 cohorts. Each cohort comprises 12 patients-nine patients are administered Compound 1 and three patients are administered placebo. The dose for Cohort 1 is as follows: • 1.5 mg Compound 1 for 2 weeks; • 3.0 mg Compound 1 for 2 weeks; • 6.0 mg Compound 1 for 4 weeks; • 8.0 mg Compound 1 for 4 weeks; • 12.0 mg Compound 1 for 4 weeks; and • 16.0 mg Compound 1 for 4 weeks. The dose for Cohort 2 is as follows: • 2.0 mg Compound 1 for 3 weeks; • 4.0 mg Compound 1 for 3 weeks; • 6.0 mg Compound 1 for 3 weeks; • 8.0 mg Compound 1 for 3 weeks; • 10.0 mg Compound 1 for 2 weeks; • 13.0 mg Compound 1 for 2 weeks, and • 16.0 mg Compound 1 for 4 weeks. Body weight and waist circumference are measured at frequent intervals across dose from Day 1 through Day 138 and for an extended follow-up period after the conclusion of dosing. Mean absolute and percent change in body weight are calculated for Compound 1 and for placebo arms within each cohort and compared to baseline at multiple time points from Day 1 through Day 138 and throughout the extended follow-up period after the conclusion of dosing. Mean absolute and percent change in waist circumference are calculated for Compound 1 and for placebo arms within each cohort and compared to baseline at multiple time points from Day 1 through Day 138 and throughout the extended follow-up period after the conclusion of dosing. While the weight loss described in Example 1 is in a T2D patient population, greater weight loss is typical in an obesity patient population. A multiplier of 1.6-1.8 may be applied to percent weight loss moving from the T2D population to an obesity population.

[2] = human, in vivo
Description: Up to two samples may be collected at additional time points during the study if warranted and agreed upon between both the investigator and sponsor.
All available PK data is utilized for model development.

patients with T2DM [3] = test: Example 1 study: gastric emptying (acetaminophen PK); assay type: in vivo, human
[4] = Cohort 1, escalated to 4.5 mg, Day 80
[5] = Cohort 2, escalated to 10.0 mg, Day 108

CC(C)C[C@H](NC(=O)[C@H](CC(C)C)NC(=O)[C@H](Cc1c[nH]c2ccccc12)NC(=O)[C@H](CCC(=O)O)NC(=O)[C@@H](NC(=O)[C@H](Cc1ccccc1)NC(=O)[C@H](CCC(=O)O)NC(=O)[C@H](CCCCNC(=O)COCCOCCNC(=O)COCCOCCNC(=O)CC[C@H](NC(=O)CCCCCCCCCCCCCCCCCCC(=O)O)C(=O)O)NC(=O)[C@H](C)NC(=O)[C@H](CCCCN)NC(=O)[C@H](CCCCN)NC(=O)[C@H](CCC(=O)O)NC(=O)[C@H](CC(=O)O)NC(=O)[C@H](CC(C)C)NC(=O)[C@H](Cc1ccc(O)cc1)NC(=O)[C@H](CCCCN)NC(=O)[C@H](CO)NC(=O)[C@H](Cc1ccc(O)cc1)NC(=O)[C@H](CC(=O)O)NC(=O)[C@H](CO)NC(=O)[C@@H](NC(=O)[C@H](Cc1ccccc1)NC(=O)[C@@H](NC(=O)CNC(=O)[C@H](CCC(N)=O)NC(=O)C(C)(C)NC(=O)[C@@H](N)Cc1c[nH]cn1)[C@@H](C)O)[C@@H](C)O)C(C)C)C(=O)N[C@@H](CCC(=O)O)C(=O)NCC(=O)NCC(=O)N1CCC[C@H]1C(=O)N[C@@H](CO)C(=O)N[C@@H](CO)C(=O)NCC(N)=O [Compound 1]
C-peptide AUC(0-3 h) during MMTT, mean (patients with T2DM [1]; Cohort 1 (1.5-4.5 mg QW), Day 80, baseline 4391.4): 5850.1 pmol·h/L
C-peptide AUC(0-3 h) during MMTT, change from baseline (patients with T2DM [1]; Cohort 1, Day 80): 1474.6* pmol · h/L
Disposition index, change from baseline (patients with T2DM [1]; Cohort 1, Day 80): −0.235
First PH ISI-S, change from baseline (patients with T2DM [1]; Cohort 1, Day 80): 12090.422
Glucagon AUC(0-3 h) during MMTT, change from baseline (patients with T2DM [1]; Cohort 1, Day 80): -32.50 pmol·h/L
Glucose AUC(0-3 h) during MMTT, change from baseline (patients with T2DM [1]; Cohort 1, Day 80): -14.37 mmol·h/L
HOMA2-B, change from baseline (patients with T2DM [1]; Cohort 1, Day 80): 22.971
HOMA2-IR, change from baseline (patients with T2DM [1]; Cohort 1, Day 80): −0.434
ISI-M (Matsuda Index), change from baseline (patients with T2DM [1]; Cohort 1, Day 80): 0.237
MMTT glucose AUC 0-3 hours, approximate decrease from baseline (patients with T2DM [1]; Cohort 1, Day 80): ~40%
Oxyntomodulin AUC(0-3 h) during MMTT, change from baseline (patients with T2DM [1]; Cohort 1, Day 80): -41.594 pmol·h/L
Second PH ISI-S, change from baseline (patients with T2DM [1]; Cohort 1, Day 80): 2273.29
Disposition index, mean (patients with T2DM [1]; Cohort 1, Day 80, baseline 1.033): 0.642
ISI-M (Matsuda Index), mean (patients with T2DM [1]; Cohort 1, Day 80, baseline 3.568): 3.567
HOMA2-IR, mean (patients with T2DM [1]; Cohort 1, Day 80, baseline 4.704): 4.271
HOMA2-B, mean (patients with T2DM [1]; Cohort 1, Day 80, baseline 15.791): 38.762
Glucose AUC(0-3 h) during MMTT, mean (patients with T2DM [1]; Cohort 1, Day 80, baseline 43.06): 25.76 mmol·h/L and 25.72 mmol·h/L
Glucagon AUC(0-3 h) during MMTT, mean (patients with T2DM [1]; Cohort 1, Day 80, baseline 64.98): 27.93 pmol·h/L
Oxyntomodulin AUC(0-3 h) during MMTT, mean (patients with T2DM [1]; Cohort 1, Day 80, baseline 89.822): 58.042 pmol·h/L
Second PH ISI-S (second phase Stumvoll Index), mean (patients with T2DM [1]; Cohort 1, Day 80, baseline −6253.26): −3634.241
First PH ISI-S (first phase Stumvoll Index), mean (patients with T2DM [1]; Cohort 1, Day 80, baseline −33534.1): −19605.805
MMTT C-peptide AUC 0-3 hours, approximate increase from baseline (patients with T2DM [1]; [4]): ~33%
MMTT glucagon AUC 0-3 hours, approximate decrease from baseline (patients with T2DM [1]; [4]): ~57%
MMTT insulin AUC 0-3 hours, approximate increase from baseline (patients with T2DM [1]; [4]): ~51%
Matsuda index (ISI-M) versus baseline (patients with T2DM [1]; [4]): no change from baseline
MMTT insulin mean area under the curve 0-3 hours (patients with T2DM [1]; Cohort 1, escalated to 4.5 mg, Day 80, baseline 125.233): 189.435 h*mIU/L
C-peptide AUC(0-3 h) during MMTT, mean (patients with T2DM [1]; Cohort 2 (2-10 mg QW), Day 108, baseline 3604.1): 3147.4 pmol·h/L
C-peptide AUC(0-3 h) during MMTT, change from baseline (patients with T2DM [1]; Cohort 2, Day 108): -897.4 pmol·h/L
Disposition index, change from baseline (patients with T2DM [1]; Cohort 2, Day 108): −0.198
First PH ISI-S (first phase Stumvoll Index), mean (patients with T2DM [1]; Cohort 2, Day 108): −19372.347
First PH ISI-S, change from baseline (patients with T2DM [1]; Cohort 2, Day 108): 11985.334
Glucagon AUC(0-3 h) during MMTT, change from baseline (patients with T2DM [1]; Cohort 2, Day 108): -40.55 pmol·h/L
Glucose AUC(0-3 h) during MMTT, change from baseline (patients with T2DM [1]; Cohort 2, Day 108): -15.73 mmol·h/L
HOMA2-B, change from baseline (patients with T2DM [1]; Cohort 2, Day 108): 3.824
HOMA2-IR, change from baseline (patients with T2DM [1]; Cohort 2, Day 108): −1.071
ISI-M (Matsuda Index), change from baseline (patients with T2DM [1]; Cohort 2, Day 108): 5.905
Oxyntomodulin AUC(0-3 h) during MMTT, change from baseline (patients with T2DM [1]; Cohort 2, Day 108): -49.843 pmol·h/L
Second PH ISI-S, change from baseline (patients with T2DM [1]; Cohort 2, Day 108): 2252.292
Disposition index, mean (patients with T2DM [1]; Cohort 2, Day 108, baseline 1.276): 1.265
HOMA2-IR, mean (patients with T2DM [1]; Cohort 2, Day 108, baseline 2.7): 1.325
ISI-M (Matsuda Index), mean (patients with T2DM [1]; Cohort 2, Day 108, baseline 4.616): 10.7
HOMA2-B, mean (patients with T2DM [1]; Cohort 2, Day 108, baseline 9.108): 12.077
Glucose AUC(0-3 h) during MMTT, mean (patients with T2DM [1]; Cohort 2, Day 108, baseline 38.27): 23.74 mmol·h/L
Glucagon AUC(0-3 h) during MMTT, mean (patients with T2DM [1]; Cohort 2, Day 108, baseline 39.89): 7.61 pmol·h/L
Oxyntomodulin AUC(0-3 h) during MMTT, mean (patients with T2DM [1]; Cohort 2, Day 108, baseline 124.741): 66.077 pmol·h/L
Second PH ISI-S (second phase Stumvoll Index), mean (patients with T2DM [1]; Cohort 2, Day 108, baseline −5889.19): −3593.001
MMTT C-peptide AUC 0-3 hours, approximate decrease from baseline (patients with T2DM [1]; [5]): ~13%
MMTT glucagon AUC 0-3 hours, approximate decrease from baseline (patients with T2DM [1]; [5]): ~81%
MMTT glucose AUC 0-3 hours, approximate decrease from baseline (patients with T2DM [1]; [5]): ~38%
MMTT insulin AUC 0-3 hours, approximate decrease from baseline (patients with T2DM [1]; [5]): ~10%
Matsuda index (ISI-M), approximate increase from baseline (patients with T2DM [1]; [5]): approximately 132%
MMTT insulin area under the curve 0-3 hours (patients with T2DM [1]; Cohort 2, escalated to 10.0 mg, Day 108, baseline 77.692): 69.847 h*mIU/L
sMMTT total cholesterol levels (patients with T2DM [1]; Cohort 2 doses (FIG. 7b)): substantially reduced
sMMTT HDL cholesterol levels (patients with T2DM [1]; Cohort 2 doses (FIG. 7e)): substantially reduce
sMMTT LDL cholesterol levels (patients with T2DM [1]; Cohort 2 doses (FIG. 7f)): substantially reduce
sMMTT triglyceride levels (patients with T2DM [1]; Cohort 2 doses (FIG. 7h)): substantially reduce
reduction of glucagon secretion from baseline in response to mixed meals (patients with T2DM [1]; dose up to 4.5 mg): greater than 50%
reduction of glucagon secretion from baseline in response to mixed meals (patients with T2DM [1]; dose up to 10 mg): greater than 80%
mean waist circumference change (individuals with obesity; Ex. 2 Cohort 1, Day 85/12 weeks (after 4 weeks of 8 mg), placebo +0.04%): −5.2%
mean percent change from baseline in body weight (individuals with obesity; Ex. 2 Cohort 1, Day 113/16 weeks, after 4 weeks of 12 mg, placebo +0.7%): −15.4%
mean waist circumference change (individuals with obesity; Ex. 2 Cohort 1, Day 113/16 weeks, after 4 weeks of 12 mg, placebo +1.3%): −6.3%
mean waist circumference change (individuals with obesity; Ex. 2 Cohort 1, Day 138/20 weeks, after 4 weeks of 16 mg, placebo +0.4%): −11.5%
mean waist circumference change (individuals with obesity; Ex. 2 Cohort 2, Day 85/12 weeks (after 8 mg), placebo +0.04%): −7.6%
mean percent change from baseline in body weight (individuals with obesity; Ex. 2 Cohort 2, Day 85/12 weeks (after 8 mg), placebo +0.2%): −11.7%
mean percent change from baseline in body weight (individuals with obesity; Ex. 2 Cohort 2, Day 99/14 weeks, after 2 weeks of 10 mg, placebo +0.07%): −13.4%
mean waist circumference change (individuals with obesity; Ex. 2 Cohort 2, Day 99/14 weeks, after 2 weeks of 10 mg, placebo +1.0%): −6.8%
mean percent change from baseline in body weight (individuals with obesity; Ex. 2 Cohort 2, Day 113/16 weeks, after 2 weeks of 13 mg, placebo +0.7%): −16.2%
mean waist circumference change (individuals with obesity; Ex. 2 Cohort 2, Day 113/16 weeks, after 2 weeks of 13 mg, placebo +1.3%): −12.6%
mean waist circumference change (individuals with obesity; Ex. 2 Cohort 2, Day 138/20 weeks, after 4 weeks of 16 mg, placebo +0.4%): −16.6%
t1/2, geomean (range) ([2]; 4.5 mg): 209 (117 to 362) h
t1/2, geomean (range) ([2]; 10 mg): 213 (129 to 366) h
Apparent clearance, CL/F, population mean estimate ([2]; sc): 0.0311 L/h
acetaminophen Cmax, Change From Baseline, Mean (patients with T2DM [3]; Cohort 1, Day 107): 1487.25
acetaminophen tmax (patients with T2DM [3]; Cohort 1, Day 107): 1.456 h
acetaminophen tmax (patients with T2DM [3]; Cohort 2, Day 79): 3.302 h
acetaminophen tmax, Change From Baseline, Mean (patients with T2DM [3]; Cohort 2, Day 79): 0.333 h
